Data taken from patent US20250122218A1, “MODULATORS OF CYSTIC FIBROSIS TRANSMEMBRANE CONDUCTANCE REGULATOR” (Vertex Pharmaceuticals Incorporated, priority 2022, published 2025).

Molecular target: T1, CFTR in F508del/MF-HBE cells (Homo sapiens, UniProt P13569, DEL508-508)
T1 construct: human bronchial epithelial (HBE) cells derived from CF subjects heterozygous for F508del and a minimal function CFTR mutation; endogenous in cells; host or cells: primary human bronchial epithelial cells from CF subjects (F508del/MF-HBE)
Experiment: Ussing chamber assay of CFTR-mediated short-circuit currents (identification of potentiator compounds)
Assay type: cell-based
Conditions: potentiator incubated 18-24 hours at 37° C. in combination with 10 μM corrector, in the presence of 20% human serum, CFTR-mediated ISC
Procedure, shortened: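 Short-circuit current was measured in Ussing chambers at 37° C, Vhold 0 mV, 30 μM apical amiloride. CFTR current was defined as the forskolin (20 μM) response relative to the current remaining after BPO/GlyH-101/inhibitor 172 (20 μM each). Before recording, cells had 18-24 h exposure to test potentiators with 10 μM corrector compound in 20% human serum.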

T1 sequence (P13569 with tags, fused parts or gaps DEL508-508): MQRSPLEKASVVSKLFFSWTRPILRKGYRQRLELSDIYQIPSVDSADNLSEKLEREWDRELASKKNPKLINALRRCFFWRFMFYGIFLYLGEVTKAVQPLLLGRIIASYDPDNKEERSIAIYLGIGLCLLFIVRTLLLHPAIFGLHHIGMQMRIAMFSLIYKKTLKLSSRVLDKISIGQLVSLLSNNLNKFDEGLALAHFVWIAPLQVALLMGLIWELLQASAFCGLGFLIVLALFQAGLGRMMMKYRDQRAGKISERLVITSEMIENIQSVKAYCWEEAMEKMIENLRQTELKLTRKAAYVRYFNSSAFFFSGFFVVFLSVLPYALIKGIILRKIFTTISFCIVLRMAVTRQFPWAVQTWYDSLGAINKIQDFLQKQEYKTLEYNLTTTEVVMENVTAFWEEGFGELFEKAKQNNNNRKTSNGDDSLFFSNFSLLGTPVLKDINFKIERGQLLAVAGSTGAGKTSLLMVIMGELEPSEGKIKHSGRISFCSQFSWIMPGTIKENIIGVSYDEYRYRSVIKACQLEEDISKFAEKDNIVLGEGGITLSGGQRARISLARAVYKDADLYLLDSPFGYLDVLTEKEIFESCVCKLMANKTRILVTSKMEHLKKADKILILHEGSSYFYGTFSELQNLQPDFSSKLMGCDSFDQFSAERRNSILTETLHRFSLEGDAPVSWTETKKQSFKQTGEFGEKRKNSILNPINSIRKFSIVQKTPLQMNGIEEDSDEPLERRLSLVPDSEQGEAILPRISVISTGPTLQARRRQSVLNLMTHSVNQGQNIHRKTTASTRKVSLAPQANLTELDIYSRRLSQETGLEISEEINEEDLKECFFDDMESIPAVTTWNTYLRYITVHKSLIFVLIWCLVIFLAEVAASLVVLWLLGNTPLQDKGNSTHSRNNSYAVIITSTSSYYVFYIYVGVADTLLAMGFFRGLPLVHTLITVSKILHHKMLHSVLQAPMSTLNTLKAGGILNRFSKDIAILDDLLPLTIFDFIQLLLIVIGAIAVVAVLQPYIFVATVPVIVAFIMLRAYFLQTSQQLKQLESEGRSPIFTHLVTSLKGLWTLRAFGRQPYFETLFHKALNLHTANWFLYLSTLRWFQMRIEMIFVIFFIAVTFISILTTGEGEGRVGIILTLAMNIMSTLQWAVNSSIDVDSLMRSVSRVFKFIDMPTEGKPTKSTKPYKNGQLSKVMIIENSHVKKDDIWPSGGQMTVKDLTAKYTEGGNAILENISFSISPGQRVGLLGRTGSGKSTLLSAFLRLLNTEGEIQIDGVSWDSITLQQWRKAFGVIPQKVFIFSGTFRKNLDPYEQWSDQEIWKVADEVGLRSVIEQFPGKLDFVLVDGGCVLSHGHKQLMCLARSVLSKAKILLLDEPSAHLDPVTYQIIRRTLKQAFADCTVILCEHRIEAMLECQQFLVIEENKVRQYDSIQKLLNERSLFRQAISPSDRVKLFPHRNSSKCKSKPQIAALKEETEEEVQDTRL

EC50 [nM]	Structure (SMILES)
< 500	CC1(C)CCCC[C@](O)(C(F)(F)F)C2=NN=C(O2)c2nc(c(C(F)(F)F)cc2N)C(=O)N(Cc2ccc3c(c2)OC(F)(F)O3)C1 [Compound 124, (6R)-18-amino-13-[(2,2-difluoro-1,3-benzodioxol-5-yl)methyl]-6-hydroxy-11,11-dimethyl-6,16-bis (trifluoromethyl)-20-oxa-3,4,13,19-tetrazatricyclo [13.3.1.12,5]icosa-1(19),2,4,15,1 7-pentaen-14-one]
< 500	Nc1cc(C(F)(F)F)c2nc1-c1nnc(o1)[C@@](O)(C(F)(F)F)CCCCCN(C13CCC(CC1)C3)C2=O [Compound 125, (6R)-17-amino-6-hydroxy-12-norbornan-1-yl-6,15-bis (trifluoromethyl)-19-oxa-3,4,12,18-tetrazatricyclo [12.3.1.12,5] nonadeca-1(18),2,4,14,1 6-pentaen-13-one]
> 1000	Nc1cc(C(F)(F)F)c2nc1-c1nnc(o1)[C@@](O)(C(F)(F)F)CCCCCN(c1cccnc1)C2=O [Compound 126, (6R)-17-amino-6-hydroxy-12-(3-pyridyl)-6,15-bis (trifluoromethyl)-19-oxa-3,4,12,18-tetrazatricyclo [12.3.1.12,5] nonadeca-1(18),2,4,14,1 6-pentaen-13-one]
< 500	Cc1ccccc1CN1CCCCC[C@](O)(C(F)(F)F)C2=NN=C(O2)c2nc(c(C(F)(F)F)cc2N)C1=O [Compound 127, (6R)-17-amino-6-hydroxy-12-(0-tolylmethyl)-6,15-bis (trifluoromethyl)-19-oxa-3,4,12,18-tetrazatricyclo [12.3.1.12,5] nonadeca-1(18),2,4,14,1 6-pentaen-13-one]
< 500	CC(C)n1cc(CN2CCCCC[C@](O)(C(F)(F)F)C3=NN=C(O3)c3nc(c(C(F)(F)F)cc3N)C2=O)cn1 [Compound 128, (6R)-17-amino-6-hydroxy-12-[(1-isopropylpyrazol-4-yl)methyl]-6,1-bis (trifluoromethyl)-19-oxa-3,4,12,18-tetrazatricyclo [12.3.1.12,5] nonadeca-1(18),2,4,14,1 6-pentaen-13-one]
< 500	CC(C)n1nccc1CN1CCCCC[C@](O)(C(F)(F)F)C2=NN=C(O2)c2nc(c(C(F)(F)F)cc2N)C1=O [Compound 129, (6R)-17-amino-6-hydroxy-12-[(2-isopropylpyrazol-3-yl)methyl]-6,15-bis (trifluoromethyl)-19-oxa-3,4,12,18-tetrazatricyclo [12.3.1.12,5] nonadeca-1(18),2,4,14,1 6-pentaen-13-one]
< 500	Nc1cc(C(F)(F)F)c2nc1-c1nnc(o1)[C@@](O)(C(F)(F)F)CCCCCN(CC1CCOCC1)C2=O [Compound 132, (6R)-17-amino-6-hydroxy-12-(tetrahydropyran-4-ylmethyl)-6,15-bis (trifluoromethyl)-19-oxa-3,4,12,18-tetrazatricyclo [12.3.1.12,5] nonadeca-1(18),2,4,14,1 6-pentaen-13-one]
< 500	Cc1ccc(CN2CCCCC[C@](O)(C(F)(F)F)C3=NN=C(O3)c3nc(c(C(F)(F)F)cc3N)C2=O)cc1 [Compound 134, (6R)-17-amino-6-hydroxy-12-(p-tolylmethyl)-6,15-bis (trifluoromethyl)-19-oxa-3,4,12,18-tetrazatricyclo [12.3.1.12,5] nonadeca-1(18),2,4,14,1 6-pentaen-13-one]
< 500	Nc1cc(C(F)(F)F)c2nc1-c1nnc(o1)[C@@](O)(C(F)(F)F)CCCCCN(Cc1ccc(C(F)(F)F)cc1)C2=O [Compound 135, (6R)-17-amino-6-hydroxy-6,15-bis (trifluoromethyl)-12-[[4-(trifluoromethyl)phenyl]methyl]-19-oxa-3,4,12,18-tetrazatricyclo [12.3.1.12,5] nonadeca-1(18),2,4,14,1 6-pentaen-13-one]
< 500	Nc1cc(C(F)(F)F)c2nc1-c1nnc(o1)[C@@](O)(C(F)(F)F)CCCCCN(Cc1ccc(F)cc1)C2=O [Compound 136, (6R)-17-amino-12-[(4-fluorophenyl)methyl]-6-hydroxy-6,15-bis (trifluorom ethyl)-19-oxa-3,4,12,18-tetrazatricyclo [12.3.1.12,5] nonadeca-1(18),2,4,14,1 6-pentaen-13-one]
< 500	Nc1cc(C(F)(F)F)c2nc1-c1nnc(o1)[C@@](O)(C(F)(F)F)CCCCCN(CCc1ccccc1)C2=O [Compound 137, (6R)-17-amino-6-hydroxy-12-(2-phenylethyl)-6,15-bis (trifluoromethyl)-19-oxa-3,4,12,18-tetrazatricyclo [12.3.1.12,5] nonadeca-1(18),2,4,14,1 6-pentaen-13-one]
< 500	COc1cccc(CN2CCCCC[C@](O)(C(F)(F)F)C3=NN=C(O3)c3nc(c(C(F)(F)F)cc3N)C2=O)c1 [Compound 138, (6R)-17-amino-6-hydroxy-12-[(3-methoxyphenyl)methyl]-6,15-bis (trifluorom ethyl)-19-oxa-3,4,12,18-tetrazatricyclo [12.3.1.12,5] nonadeca-1(18),2,4,14,1 6-pentaen-13-one]
< 500	CC(C)c1cccc(CN2CCCCC[C@](O)(C(F)(F)F)C3=NN=C(O3)c3nc(c(C(F)(F)F)cc3N)C2=O)c1 [Compound 139, (6R)-17-amino-6-hydroxy-12-[(3-isopropylphenyl)methyl]-6,15-bis (trifluoromethyl)-19-oxa-3,4,12,18-tetrazatricyclo [12.3.1.12,5] nonadeca-1(18),2,4,14,1 6-pentaen-13-one]
< 500	Cc1cccnc1CN1CCCCC[C@](O)(C(F)(F)F)C2=NN=C(O2)c2nc(c(C(F)(F)F)cc2N)C1=O [Compound 140, (6R)-17-amino-6-hydroxy-12-[(3-methyl-2-pyridyl)methyl]-6,15-bis (trifluoromethyl)-19-oxa-3,4,12,18-tetrazatricyclo [12.3.1.12,5] nonadeca-1(18),2,4,14,1 6-pentaen-13-one]
< 500	Nc1cc(C(F)(F)F)c2nc1-c1nnc(o1)[C@@](O)(C(F)(F)F)CCCCCN(Cc1ccccc1OC(F)(F)F)C2=O [Compound 141, (6R)-17-amino-6-hydroxy-12-[[2-(trifluoromethoxy)phenyl]methyl]-6,15-bis (trifluoromethyl)-19-oxa-3,4,12,18-tetrazatricyclo [12.3.1.12,5] nonadeca-1(18),2,4,14,1 6-pentaen-13-one]
< 500	Nc1cc(C(F)(F)F)c2nc1-c1nnc(o1)[C@@](O)(C(F)(F)F)CCCCCN(Cc1cccc(OC(F)(F)F)c1)C2=O [Compound 142, (6R)-17-amino-6-hydroxy-12-[[3-(trifluoromethoxy)phenyl]methyl]-6,15-bis (trifluoromethyl)-19-oxa-3,4,12,18-tetrazatricyclo [12.3.1.12,5] nonadeca-1(18),2,4,14,1 6-pentaen-13-one]
< 500	CC(C)Oc1ccc(CN2CCCCC[C@](O)(C(F)(F)F)C3=NN=C(O3)c3nc(c(C(F)(F)F)cc3N)C2=O)cc1 [Compound 143, (6R)-17-amino-6-hydroxy-12-[(4-isopropoxyphenyl)methyl]-6,15-bis (trifluoromethyl)-19-oxa-3,4,12,18-tetrazatricyclo [12.3.1.12,5] nonadeca-1(18),2,4,14,1 6-pentaen-13-one]
< 500	Nc1cc(C(F)(F)F)c2nc1-c1nnc(o1)[C@@](O)(C(F)(F)F)CCCCCN(Cc1ccc(Cl)cc1)C2=O [Compound 144, (6R)-17-amino-12-[(4-chlorophenyl)methyl]-6-hydroxy-6,15-bis (trifluoromethyl)-19-oxa-3,4,12,18-tetrazatricyclo [12.3.1.12,5] nonadeca-1(18),2,4,14,1 6-pentaen-13-one]
< 500	Nc1cc(C(F)(F)F)c2nc1-c1nnc(o1)[C@@](O)(C(F)(F)F)CCCCCN(Cc1ccc(F)cc1F)C2=O [Compound 145, (6R)-17-amino-12-[(2,4-difluorophenyl)methyl]-6-hydroxy-6,15-bis (trifluoromethyl)-19-oxa-3,4,12,18-tetrazatricyclo [12.3.1.12,5] nonadeca-1(18),2,4,14,1 6-pentaen-13-one]
< 500	Nc1cc(C(F)(F)F)c2nc1-c1nnc(o1)[C@@](O)(C(F)(F)F)CCCCCN(Cc1ccc(F)c(F)c1)C2=O [Compound 146, (6R)-17-amino-12-[(3,4-difluorophenyl)methyl]-6-hydroxy-6,15-bis (trifluoromethyl)-19-oxa-3,4,12,18-tetrazatricyclo [12.3.1.12,5] nonadeca-1(18),2,4,14,1 6-pentaen-13-one]
< 500	Nc1cc(C(F)(F)F)c2nc1-c1nnc(o1)[C@@](O)(C(F)(F)F)CCCCCN(Cc1ccc(C(F)(F)F)nc1)C2=O [Compound 147, (6R)-17-amino-6-hydroxy-6,15-bis (trifluoromethyl)-12-[[6-(trifluoromethyl)-3-pyridyl]methyl]-19-oxa-3,4,12,18-tetrazatricyclo [12.3.1.12,5] nonadeca-1(18),2,4,14,1 6-pentaen-13-one]
< 500	CCCc1cccc(CN2CCCCC[C@](O)(C(F)(F)F)C3=NN=C(O3)c3nc(c(C(F)(F)F)cc3N)C2=O)c1 [Compound 148, (6R)-17-amino-6-hydroxy-12-[(3-propylphenyl)methyl]-6,15-bis (trifluoromethyl)-19-oxa-3,4,12,18-tetrazatricyclo [12.3.1.12,5] nonadeca-1(18),2,4,14,1 6-pentaen-13-one]
< 500	Nc1cc(C(F)(F)F)c2nc1-c1nnc(o1)[C@@](O)(C(F)(F)F)CCCCCN(Cc1cccc(Cl)c1)C2=O [Compound 149, (6R)-17-amino-12-[(3-chlorophenyl)methyl]-6-hydroxy-6,15-bis (trifluoromethyl)-19-oxa-3,4,12,18-tetrazatricyclo [12.3.1.12,5] nonadeca-1(18),2,4,14,1 6-pentaen-13-one]
